According to ChEMBL document CHEMBL1201862, “PubChem BioAssay data set” (2004):
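48-hour exposure; five concentrations; linearly interpolated endpoints. The concentration for 50% growth inhibition is given as GI50.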 The source made the active and inactive calls. Cut-off read from the data, not from the text of the source: active = GI50 up to about 1.1 µM and inactive = higher.

What was measured:
Test in all cases: NCI anticancer screen, dose series, 48 h
[1] = system: SNB-19
[2] = system: PC-3
[3] = system: OVCAR-5
[4] = system: U-251
[5] = system: DU-145
[6] = system: M14
[7] = system: NCI/ADR-RES
[8] = system: RXF 393
[9] = system: EKVX
[10] = system: MDA-MB-435
[11] = system: HOP-92
[12] = system: HCC 2998
[13] = system: OVCAR-8
[14] = system: COLO 205
[15] = system: SN12C
[16] = system: MDA-MB-231
[17] = system: NCI-H23
[18] = system: NCI-H460

SMILES: Oc1c2c(nc3cc4c(cc13)OCO4)-c1ccccc1CCC2
- GI50 [1]: > 50 µM (inactive)
- GI50 [2]: > 50 µM (inactive)
- GI50 [3]: > 50 µM (inactive)
- GI50 [4]: > 50 µM (inactive)
- GI50 [5]: > 50 µM (inactive)
- GI50 [6]: 49.3 µM (inactive)
- GI50 [7]: > 50 µM (inactive)
- GI50 [8]: > 50 µM (inactive)
- GI50 [9]: > 50 µM (inactive)
- GI50 [10]: 23.7 µM (inactive)
- GI50 [11]: > 50 µM (inactive)
- GI50 [12]: > 50 µM (inactive)
- GI50 [13]: 48.5 µM (inactive)
- GI50 [14]: > 50 µM (inactive)
- GI50 [15]: > 50 µM (inactive)
- GI50 [16]: > 50 µM (inactive)
- GI50 [17]: > 50 µM (inactive)
- GI50 [18]: > 50 µM (inactive)

SMILES: O=C(N/N=C/c1ccc([N+](=O)[O-])cc1)Nc1ccc(Br)cc1
- GI50 [1]: 76.4 µM (inactive)
- GI50 [2]: > 100 µM (inactive)
- GI50 [3]: > 100 µM (inactive)
- GI50 [4]: 69.3 µM (inactive)
- GI50 [5]: 47.9 µM (inactive)
- GI50 [6]: 45.2 µM (inactive)
- GI50 [7]: 49.2 µM (inactive)
- GI50 [8]: > 100 µM (inactive)
- GI50 [9]: 99.1 µM (inactive)
- GI50 [10]: 32.6 µM (inactive)
- GI50 [11]: > 100 µM (inactive)
- GI50 [12]: 26.5 µM (inactive)
- GI50 [13]: 40.9 µM (inactive)
- GI50 [14]: 63.2 µM (inactive)
- GI50 [15]: 60 µM (inactive)
- GI50 [16]: > 100 µM (inactive)
- GI50 [17]: 47.2 µM (inactive)
- GI50 [18]: > 100 µM (inactive)

SMILES: COC(=O)C1Cc2cccc(C)c2C1 (stereo not drawn)
- GI50 [1]: > 100 µM (inactive)
- GI50 [2]: > 100 µM (inactive)
- GI50 [3]: > 100 µM (inactive)
- GI50 [4]: 89.3 µM (inactive)
- GI50 [5]: > 100 µM (inactive)
- GI50 [6]: > 100 µM (inactive)
- GI50 [7]: 62.2 µM (inactive)
- GI50 [8]: > 100 µM (inactive)
- GI50 [9]: > 100 µM (inactive)
- GI50 [10]: > 100 µM (inactive)
- GI50 [11]: > 100 µM (inactive)
- GI50 [12]: > 100 µM (inactive)
- GI50 [13]: > 100 µM (inactive)
- GI50 [14]: > 100 µM (inactive)
- GI50 [15]: > 100 µM (inactive)
- GI50 [16]: > 100 µM (inactive)
- GI50 [17]: > 100 µM (inactive)
- GI50 [18]: > 100 µM (inactive)

SMILES: COc1cccc(OC)c1/C=C1\OC(=O)c2cccc(OC)c21
- GI50 [1]: 4.74 µM (inactive)
- GI50 [2]: 4.72 µM (inactive)
- GI50 [3]: 13.2 µM (inactive)
- GI50 [4]: 3.32 µM (inactive)
- GI50 [5]: 5.32 µM (inactive)
- GI50 [6]: 4.1 µM (inactive)
- GI50 [7]: 3.51 µM (inactive)
- GI50 [8]: 4.61 µM (inactive)
- GI50 [9]: 10.3 µM (inactive)
- GI50 [10]: 0.526 µM (active)
- GI50 [11]: 8.69 µM (inactive)
- GI50 [12]: 3.16 µM (inactive)
- GI50 [13]: 4.59 µM (inactive)
- GI50 [14]: 2.88 µM (inactive)
- GI50 [15]: 20 µM (inactive)
- GI50 [16]: 12.8 µM (inactive)
- GI50 [17]: 19.4 µM (inactive)
- GI50 [18]: 2.65 µM (inactive)

SMILES: CCOC(=O)c1c2ccccc2n2c(=O)n(C)nnc12
- GI50 [1]: > 100 µM (inactive)
- GI50 [2]: > 100 µM (inactive)
- GI50 [3]: > 100 µM (inactive)
- GI50 [4]: > 89.1 µM (inactive)
- GI50 [5]: > 100 µM (inactive)
- GI50 [6]: > 100 µM (inactive)
- GI50 [7]: > 100 µM (inactive)
- GI50 [8]: > 47.4 µM (inactive)
- GI50 [9]: 99.8 µM (inactive)
- GI50 [10]: > 53.7 µM (inactive)
- GI50 [11]: > 100 µM (inactive)
- GI50 [12]: > 100 µM (inactive)
- GI50 [13]: > 100 µM (inactive)
- GI50 [14]: > 100 µM (inactive)
- GI50 [15]: > 100 µM (inactive)
- GI50 [16]: > 100 µM (inactive)
- GI50 [17]: > 100 µM (inactive)
- GI50 [18]: > 100 µM (inactive)

SMILES: COC(=O)c1c(OC(C)=O)ccc2c1c1c(n2C)C(=O)c2ccccc2C1=O
- GI50 [1]: 33.7 µM (inactive)
- GI50 [2]: 27.2 µM (inactive)
- GI50 [3]: 34.3 µM (inactive)
- GI50 [4]: 31.3 µM (inactive)
- GI50 [5]: 14.6 µM (inactive)
- GI50 [6]: 35.2 µM (inactive)
- GI50 [7]: 33.9 µM (inactive)
- GI50 [8]: 37.1 µM (inactive)
- GI50 [9]: 28.8 µM (inactive)
- GI50 [10]: 23.9 µM (inactive)
- GI50 [11]: 1.34 µM (inactive)
- GI50 [12]: 26.8 µM (inactive)
- GI50 [13]: 25.8 µM (inactive)
- GI50 [14]: 55.3 µM (inactive)
- GI50 [15]: 39.6 µM (inactive)
- GI50 [16]: 32.8 µM (inactive)
- GI50 [17]: 19.7 µM (inactive)
- GI50 [18]: 22.4 µM (inactive)

SMILES: O=C1Nc2cccc3cc(NCC(O)CCl)cc1c23 (stereo not drawn)
- GI50 [1]: 53.6 µM (inactive)
- GI50 [2]: 38.8 µM (inactive)
- GI50 [3]: > 100 µM (inactive)
- GI50 [4]: 32.9 µM (inactive)
- GI50 [5]: 97.5 µM (inactive)
- GI50 [6]: 56.1 µM (inactive)
- GI50 [7]: 64.7 µM (inactive)
- GI50 [8]: 76.9 µM (inactive)
- GI50 [9]: 32.5 µM (inactive)
- GI50 [10]: 54.2 µM (inactive)
- GI50 [11]: 55.5 µM (inactive)
- GI50 [12]: 91 µM (inactive)
- GI50 [13]: 48.9 µM (inactive)
- GI50 [14]: 77.4 µM (inactive)
- GI50 [15]: 41.8 µM (inactive)
- GI50 [16]: > 100 µM (inactive)
- GI50 [17]: > 100 µM (inactive)
- GI50 [18]: > 100 µM (inactive)

SMILES: C/C=C/[C@H]1O[C@@](O)([C@@H](C)[C@H](O)[C@H](C)[C@H]2OC(=O)/C(OC)=C/C(C)=C/[C@@H](C)[C@@H](O)[C@@H](CC)[C@@H](O)[C@H](C)C/C(C)=C/C=C/[C@@H]2OC)C[C@H](OC2CC(O)C(O)C(C)O2)[C@@H]1C (stereo partly drawn)
- GI50 [1]: 3.42 µM (inactive)
- GI50 [2]: < 0.0075 µM (active)
- GI50 [3]: 3.49 µM (inactive)
- GI50 [4]: < 0.0075 µM (active)
- GI50 [5]: 0.256 µM (active)
- GI50 [6]: < 0.0075 µM (active)
- GI50 [7]: < 0.0075 µM (active)
- GI50 [8]: 0.121 µM (active)
- GI50 [9]: < 0.0075 µM (active)
- GI50 [10]: < 0.0075 µM (active)
- GI50 [11]: 0.19 µM (active)
- GI50 [12]: < 0.0075 µM (active)
- GI50 [13]: < 0.0075 µM (active)
- GI50 [14]: < 0.0075 µM (active)
- GI50 [15]: 7.78 µM (inactive)
- GI50 [16]: < 0.0075 µM (active)
- GI50 [17]: 0.406 µM (active)
- GI50 [18]: < 0.0075 µM (active)

SMILES: C=CCN(C(C)=O)c1cc(OCc2ccccc2)c2c(c1)c(C)cn2S(=O)(=O)c1ccccc1
- GI50 [1]: 7.08 µM (inactive)
- GI50 [2]: 4.21 µM (inactive)
- GI50 [3]: 11.8 µM (inactive)
- GI50 [4]: 4.98 µM (inactive)
- GI50 [5]: 9.75 µM (inactive)
- GI50 [6]: 5.4 µM (inactive)
- GI50 [7]: 4.95 µM (inactive)
- GI50 [8]: 4.74 µM (inactive)
- GI50 [9]: 8.85 µM (inactive)
- GI50 [10]: 5.11 µM (inactive)
- GI50 [11]: 5.96 µM (inactive)
- GI50 [12]: 22.1 µM (inactive)
- GI50 [13]: 5.57 µM (inactive)
- GI50 [14]: 3.78 µM (inactive)
- GI50 [15]: 5.52 µM (inactive)
- GI50 [16]: 6.98 µM (inactive)
- GI50 [17]: 7.8 µM (inactive)
- GI50 [18]: 4.75 µM (inactive)

SMILES: CCO/C=N/C1=C(C#N)C(c2ccc(OC)c(OC)c2)c2c(-c3ccccc3)nn(-c3ccccc3)c2O1 (stereo not drawn)
- GI50 [1]: 15.9 µM (inactive)
- GI50 [2]: 13.6 µM (inactive)
- GI50 [3]: 10.7 µM (inactive)
- GI50 [4]: 12.7 µM (inactive)
- GI50 [5]: 14.6 µM (inactive)
- GI50 [6]: 21.4 µM (inactive)
- GI50 [7]: 15.6 µM (inactive)
- GI50 [8]: 12.2 µM (inactive)
- GI50 [9]: 16.1 µM (inactive)
- GI50 [10]: 17 µM (inactive)
- GI50 [11]: 13.4 µM (inactive)
- GI50 [12]: > 100 µM (inactive)
- GI50 [13]: 19.2 µM (inactive)
- GI50 [14]: 13.1 µM (inactive)
- GI50 [15]: 14.8 µM (inactive)
- GI50 [16]: 19.2 µM (inactive)
- GI50 [17]: 15.4 µM (inactive)
- GI50 [18]: > 100 µM (inactive)

SMILES: CN(NC(=O)c1ccco1)C1=NCCCCN1
- GI50 [1]: > 100 µM (inactive)
- GI50 [2]: > 100 µM (inactive)
- GI50 [3]: > 100 µM (inactive)
- GI50 [4]: > 100 µM (inactive)
- GI50 [5]: > 100 µM (inactive)
- GI50 [6]: > 100 µM (inactive)
- GI50 [7]: > 100 µM (inactive)
- GI50 [8]: > 100 µM (inactive)
- GI50 [9]: > 100 µM (inactive)
- GI50 [10]: > 100 µM (inactive)
- GI50 [11]: > 100 µM (inactive)
- GI50 [12]: > 100 µM (inactive)
- GI50 [13]: > 100 µM (inactive)
- GI50 [14]: > 100 µM (inactive)
- GI50 [15]: > 100 µM (inactive)
- GI50 [16]: > 100 µM (inactive)
- GI50 [17]: > 100 µM (inactive)
- GI50 [18]: > 100 µM (inactive)
